Values of other authors in patent publication US20130236595A1, “FOOD PRODUCT PROVIDING SUSTAINED BLOOD LEVELS OF EXOGENOUS SUBSTANCES” (NESTEC S.A., priority 2003, published 2013).
Entries after “also recorded” stand apart in the source; their conditions may differ.

Legend:
[1] = caffeine in blood plasma

In the case of `Cn1c(=O)c2c(ncn2C)n(C)c1=O` [caffeine], the “time of peak in caffeine level in blood” value (after a cup of coffee is consumed) is listed as “after about an hour; also recorded: after one hour”, the half-life of caffeine (in adults) is listed as 3 to 7 h and the “threshold value for stimulation” value [1] is listed as “about 2 mg/l”.
